Key:
[1] = target: T1, human MetAP2 enzyme (Homo sapiens, UniProt P50579); assay: MetAP2 enzyme assay, enzyme complexed with cobalt ions; details: MetAP2 Co pIC50, MetAP2 enzyme complexed with cobalt ions; Met-AMC substrate at Km
[2] = target: T1, human MetAP2 enzyme; assay: MetAP2 enzyme assay, enzyme complexed with manganese ions; details: MetAP2 Mn pIC50, MetAP2 enzyme complexed with manganese ions; Met-AMC substrate at Km
Experimental: DNA encoding the full-length sequence of human MetAP2 enzyme is amplified by PCR and cloned into a pFastBac expression vector (Invitrogen). Recombinant baculovirus incorporating the MetAP2 construct is generated by transposition using the Bac-to-Bac system (Invitrogen). The expression of recombinant protein is carried out by infection of Spodoptera frugiperda Sf9 cells (Invitrogen) in 5 L Wave Bioreactors (Wave Biotech). Recombinant protein is isolated from cellular extracts by binding to an SP Hitrap Fast Flow or SP Sepharose (Sigma) column, and the protein is eluted using a NaCl gradient. Partially purified extracts of MetAP2 are further purified by an AKTA FPLC over a Superdex-200 column (GE). The purity of MetAP2 protein is determined on denaturing SDS-PAGE gel.
The results for each well are expressed as percent inhibition and calculated using the equation:

T1 sequence (P50579 whole entry): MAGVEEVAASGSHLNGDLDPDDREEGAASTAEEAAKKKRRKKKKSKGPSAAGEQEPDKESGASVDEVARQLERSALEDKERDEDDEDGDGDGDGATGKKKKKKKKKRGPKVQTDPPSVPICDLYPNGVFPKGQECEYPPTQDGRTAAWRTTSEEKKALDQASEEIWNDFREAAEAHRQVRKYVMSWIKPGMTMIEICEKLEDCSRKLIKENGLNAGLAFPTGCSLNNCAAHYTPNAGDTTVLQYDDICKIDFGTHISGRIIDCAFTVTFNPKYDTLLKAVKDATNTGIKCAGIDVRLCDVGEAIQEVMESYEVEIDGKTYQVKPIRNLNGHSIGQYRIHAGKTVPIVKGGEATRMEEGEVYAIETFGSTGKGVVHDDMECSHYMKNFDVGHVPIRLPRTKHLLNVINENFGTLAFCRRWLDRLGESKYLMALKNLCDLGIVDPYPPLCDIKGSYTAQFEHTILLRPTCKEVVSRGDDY

| IC50 [1] | IC50 [2] | SMILES |
| --- | --- | --- |
| 0.0158 µM | 0.0126 µM | Cc1ccc(S(=O)(=O)N(C)C)cc1-c1cc(C(F)(F)F)cc2[nH]ncc12 [Example 127, N,N,4-trimethyl-3-(6-(trifluoromethyl)-1H-indazol-4-yl)benzenesulfonamide] |
| 0.0398 µM | 0.0126 µM | OCc1ccc(Cl)c(-c2cc(C(F)(F)F)cc3[nH]ncc23)c1 [Example 128, (4-chloro-3-(6-(trifluoromethyl)-1H-indazol-4-yl)phenyl)methanol] |
| 0.01 µM | 0.00398 µM | O=C1Cc2c(cccc2-c2cc(C(F)(F)F)cc3[nH]ncc23)N1 [Example 129, 4-(6-(trifluoromethyl)-1H-indazol-4-yl)indolin-2-one] |
| 0.00794 µM | 0.00158 µM | O=C(NCCO)c1ccc(-c2cc(C(F)(F)F)cc3[nH]ncc23)cc1 [Example 130, N-(2-hydroxyethyl)-4-(6-(trifluoromethyl)-1H-indazol-4-yl)benzamide] |
| 0.0631 µM | 0.01 µM | CCOc1ncccc1-c1cc(C(F)(F)F)cc2[nH]ncc12 [Example 133, 4-(2-ethoxypyridin-3-yl)-6-(trifluoromethyl)-1H-indazole] |
| 0.1 µM | 0.0251 µM | CCCOc1ncccc1-c1cc(C(F)(F)F)cc2[nH]ncc12 [Example 134, 4-(2-propoxypyridin-3-yl)-6-(trifluoromethyl)-1H-indazole] |
| 0.158 µM | 0.01 µM | Cc1cccnc1-c1cc(C(F)(F)F)cc2[nH]ncc12 [Example 135, 4-(3-methylpyridin-2-yl)-6-(trifluoromethyl)-1H-indazole] |
| 0.158 µM | 0.0126 µM | O=C1Cc2cccc(-c3cc(C(F)(F)F)cc4[nH]ncc34)c2N1 [Example 136, 7-(6-(trifluoromethyl)-1H-indazol-4-yl)indolin-2-one] |
| 0.158 µM | 0.01 µM | Nc1ncc(Cl)cc1-c1cc(C(F)(F)F)cc2[nH]ncc12 [Example 137, 5-chloro-3-(6-(trifluoromethyl)-1H-indazol-4-yl)pyridin-2-amine] |
| 0.0398 µM | 0.01 µM | O=C1COc2c(cccc2-c2cc(C(F)(F)F)cc3[nH]ncc23)N1 [Example 139, 8-(6-(trifluoromethyl)-1H-indazol-4-yl)-2H-benzo[b][1,4]oxazin-3(4H)-one] |
| 0.0316 µM | 0.00398 µM | N#Cc1ccc(CO)c(-c2cc(C(F)(F)F)cc3[nH]ncc23)c1 [Example 140, 4-(hydroxymethyl)-3-(6-(trifluoromethyl)-1H-indazol-4-yl)benzonitrile] |
| 0.0126 µM | 0.00501 µM | O=C1NCc2c1cccc2-c1cc(C(F)(F)F)cc2[nH]ncc12 [Example 141, 4-(6-(trifluoromethyl)-1H-indazol-4-yl)isoindolin-1-one] |
| 0.0251 µM | 0.00794 µM | Nc1ncc(-c2cc(C(F)(F)F)cc3[nH]ncc23)c2cccnc12 [Example 142, 5-(6-(trifluoromethyl)-1H-indazol-4-yl)-1,7-naphthyridin-8-amine] |
| 0.0631 µM | 0.0158 µM | CC(C)Oc1ncccc1-c1cc(C(F)(F)F)cc2[nH]ncc12 [Example 143, 4-(2-isopropoxypyridin-3-yl)-6-(trifluoromethyl)-1H-indazole] |
| 0.2 µM | 0.02 µM | Cn1cc(-c2cc(C(F)(F)F)cc3[nH]ncc23)c(N)n1 [Example 144, 1-methyl-4-(6-(trifluoromethyl)-1H-indazol-4-yl)-1H-pyrazol-3-amine] |
| 3.98 µM | 0.631 µM | CCOCn1ccnc1-c1cc(C(F)(F)F)cc2[nH]ncc12 [Example 145, 4-(1-(ethoxymethyl)-1H-imidazol-2-yl)-6-(trifluoromethyl)-1H-indazole] |
| 0.794 µM | 0.1 µM | Cc1ncc(-c2cc(C(F)(F)F)cc3[nH]ncc23)n1C [Example 146, 4-(1,2-dimethyl-1H-imidazol-5-yl)-6-(trifluoromethyl)-1H-indazole] |
| 5.01 µM | 0.126 µM | Cn1ccnc1-c1cc(C(F)(F)F)cc2[nH]ncc12 [Example 147, 4-(1-methyl-1H-imidazol-2-yl)-6-(trifluoromethyl)-1H-indazole] |
| 0.501 µM | 0.0631 µM | FC(F)(F)c1cc(-c2cnc3ccccn23)c2cn[nH]c2c1 [Example 149, 4-(imidazo[1,2-a]pyridin-3-yl)-6-(trifluoromethyl)-1H-indazole] |
| 0.794 µM | 0.251 µM | Cc1nc2ccccn2c1-c1cc(C(F)(F)F)cc2[nH]ncc12 [Example 150, 4-(2-methylimidazo[1,2-a]pyridin-3-yl)-6-(trifluoromethyl)-1H-indazole] |
| 0.2 µM | 0.00631 µM | FC(F)(F)c1cc(-c2cnc3ncccn23)c2cn[nH]c2c1 [Example 151, 3-(6-(trifluoromethyl)-1H-indazol-4-yl)imidazo[1,2-a]pyrimidine] |

| IC50 [1] | IC50 [2] | SMILES |
| --- | --- | --- |
| 2 µM | 0.126 µM | FC(F)(F)c1cc(-c2cnc3cnccn23)c2cn[nH]c2c1 [Example 152, 3-(6-(trifluoromethyl)-1H-indazol-4-yl)imidazo[1,2-a]pyrazine] |
| 0.2 µM | 0.0251 µM | N#Cc1ccc2ncc(-c3cc(C(F)(F)F)cc4[nH]ncc34)n2c1 [Example 153, 3-(6-(trifluoromethyl)-1H-indazol-4-yl)imidazo[1,2-a]pyridine-6-carbonitrile] |
| 0.1 µM | 0.0158 µM | FC(F)(F)c1cc(-c2ncn3ccccc23)c2cn[nH]c2c1 [Example 154, 4-(imidazo[1,5-a]pyridin-1-yl)-6-(trifluoromethyl)-1H-indazole] |
| 0.0631 µM | 0.0158 µM | FC(F)(F)c1cc(-c2c[nH]c3ncncc23)c2cn[nH]c2c1 [Example 155, 5-(6-(trifluoromethyl)-1H-indazol-4-yl)-7H-pyrrolo[2,3-d]pyrimidine] |
| 0.501 µM | 0.0316 µM | O=c1[nH]cnc2[nH]nc(-c3cc(C(F)(F)F)cc4[nH]ncc34)c12 [Example 156, 3-(6-(trifluoromethyl)-1H-indazol-4-yl)-1H-pyrazolo[3,4-d]pyrimidin-4(5H)-one] |
| 0.251 µM | 0.0126 µM | FC(F)(F)c1cc(-c2c[nH]c3nccnc23)c2cn[nH]c2c1 [Example 157, 7-(6-(trifluoromethyl)-1H-indazol-4-yl)-5H-pyrrolo[2,3-b]pyrazine] |
| 1.58 µM | 0.158 µM | N#Cc1cnc2c(-c3cc(C(F)(F)F)cc4[nH]ncc34)cnn2c1N [Example 159, 7-amino-3-(6-(trifluoromethyl)-1H-indazol-4-yl)pyrazolo[1,5-a]pyrimidine-6-carbonitrile] |
| 0.0794 µM | 0.0398 µM | COc1ccn2c(-c3cc(C(F)(F)F)cc4[nH]ncc34)cnc2c1C#N [Example 160, 7-methoxy-3-(6-(trifluoromethyl)-1H-indazol-4-yl)imidazo[1,2-a]pyridine-8-carbonitrile] |
| 0.251 µM | 0.0126 µM | Cc1[nH]cnc1-c1cc(C(F)(F)F)cc2[nH]ncc12 [Example 161, 4-(5-methyl-1H-imidazol-4-yl)-6-(trifluoromethyl)-1H-indazole] |
| 0.316 µM | 0.00631 µM | Cc1cnc(-c2cc(C(F)(F)F)cc3[nH]ncc23)n1C [Example 162, 4-(1,5-dimethyl-1H-imidazol-2-yl)-6-(trifluoromethyl)-1H-indazole] |
| 0.794 µM | 0.0126 µM | Cc1cn(C)c(-c2cc(C(F)(F)F)cc3[nH]ncc23)n1 [Example 163, 4-(1,4-dimethyl-1H-imidazol-2-yl)-6-(trifluoromethyl)-1H-indazole] |
| 0.0158 µM | 0.00398 µM | Cc1nn(C)c(C)c1-c1cc(C(F)(F)F)cc2[nH]ncc12 [Example 164, 6-(trifluoromethyl)-4-(1,3,5-trimethyl-1H-pyrazol-4-yl)-1H-indazole] |
| 1 µM | 0.0631 µM | Cn1ncc(-c2cc(C(F)(F)F)cc3[nH]ncc23)c1N [Example 165, 1-methyl-4-(6-(trifluoromethyl)-1H-indazol-4-yl)-1H-pyrazol-5-amine] |
| 0.794 µM | 0.0398 µM | Cc1onc(N)c1-c1cc(C(F)(F)F)cc2[nH]ncc12 [Example 166, 5-methyl-4-(6-(trifluoromethyl)-1H-indazol-4-yl)isoxazol-3-amine] |
| 0.158 µM | 0.00398 µM | Cn1c(-c2cc(C(F)(F)F)cc3[nH]ncc23)nc2c1c(=O)[nH]c(=O)n2C [Example 167, 3,7-dimethyl-8-(6-(trifluoromethyl)-1H-indazol-4-yl)-1H-purine-2,6(3H,7H)-dione] |
| 0.0251 µM | 0.00631 µM | CCn1nc(C)c(-c2cc(C(F)(F)F)cc3[nH]ncc23)c1C [Example 168, 4-(1-ethyl-3,5-dimethyl-1H-pyrazol-4-yl)-6-(trifluoromethyl)-1H-indazole] |
| 0.251 µM | 0.02 µM | Cc1nn(-c2nnn[nH]2)c(C)c1-c1cc(C(F)(F)F)cc2[nH]ncc12 [Example 169, 4-(3,5-dimethyl-1-(1H-tetrazol-5-yl)-1H-pyrazol-4-yl)-6-(trifluoromethyl)-1H-indazole] |
| 0.1 µM | 0.02 µM | Cc1nn(CC#N)c(C)c1-c1cc(C(F)(F)F)cc2[nH]ncc12 [Example 170, 2-(3,5-dimethyl-4-(6-(trifluoromethyl)-1H-indazol-4-yl)-1H-pyrazol-1-yl)acetonitrile] |
| 0.0631 µM | 0.00501 µM | CCn1cc(-c2cc(C(F)(F)F)cc3[nH]ncc23)c(C)n1 [Example 171, 4-(1-ethyl-3-methyl-1H-pyrazol-4-yl)-6-(trifluoromethyl)-1H-indazole] |
| 0.0501 µM | 0.00794 µM | Cc1nn(CCC(N)=O)c(C)c1-c1cc(C(F)(F)F)cc2[nH]ncc12 [Example 172, 3-(3,5-dimethyl-4-(6-(trifluoromethyl)-1H-indazol-4-yl)-1H-pyrazol-1-yl)propanamide] |

Reference: patent US9434743B2, “Indazole derivatives” (TAKEDA PHARMACEUTICAL COMPANY LIMITED, priority 2012, dated 2016)
